Data reported in patent publication US20230158104A1, “COMPOUNDS FOR USE IN AUTOIMMUNE CONDITIONS” (priority 2020, published 2023).
Where “and” joins values, the source holds several entries; their conditions need not be identical. Equal values may be shown once. Entries after “also recorded” stand apart in the source; their conditions may differ. Read-outs that look alike come from different tables or passages of the source. Marks after values point to notes of the source that are not given here.

Experiments:
NF-κB = NF-κB transactivation luciferase assay; assay type: cell-based, human; conditions: 100 nM plitidepsin, 6 hours, with poly I:C, LPS-B5 or Resiquimod; THP-1 NF-κB-Luc cells
Protocol: Luminescence was measured in a Perkin-Elmer EnVision reader.

[1] = tested on: LPS-trigged cytokine secretion in alveolar macrophages; experiment: Ex vivo LPS-B5-triggered cytokine secretion in bronchoalveolar lavage cells of treated mice; conditions: mice 1 mg/kg i.v.
Protocol: To that end mice were injected i.v. with plitidepsin (1 mg/kg) or vehicle and 12 hours after administration bronchoalveolar lavage fluid (BAL) was collected. Cells were plated and treated ex-vivo or not with 15 μg/mL of LPS-B5 for 3 or 6 hours and secreted cytokines were measured.
Mice were randomized into groups of five animals to receive the treatments. Mice were injected intra venous (i.v.) with plitidepsin (1 mg/kg) and 12 hours after administration were euthanized. Control group received plitidepsin vehicle diluted with saline (Cremophor/Ethanol/Water). Bronchoalveolar lavage fluid (BAL) of each group was collected and centrifugated to obtain bronchoalveolar lavage cells. Cells underwent red blood cell lysis (Roche) and were plated and treated ex-vivo or not with 15 μg/mL of LPS-B5 for 3 or 6 hours. Secreted cytokines were measured using highly specific and sensitive ELISA kits. Mouse IL-6, mouse IL-10 and mouse TNF DuoSet ELISA kits were obtained from R&D Systems and performed as described by the manufacturer.

alveolar macrophages = conditions: mice, plitidepsin 1 mg/kg i.v. with LPS 20 μg/kg i.p., three hours
[2] = tested on: resiquimod (RQ)-trigged cytokine secretion in BALF; experiment: Resiquimod intranasal inflammation model, TNFα in BALF; conditions: mice 1 mg/kg i.v. 1 hour before Resiquimod 50 μg/mouse intranasal; 1 or 3 hours after RQ
Protocol: We further checked whether plitidepsin inhibits resiquimod (RQ)-trigged cytokine secretion in BALF. Mice were injected i.v. with plitidepsin (1 mg/kg) or vehicle 1 hour before a 50 μg/mouse intranasal inoculation with resiquimod. At 1 or 3 hours after intranasal administration of RQ bronchoalveolar lavage fluid (BALF) was collected. Cells were plated and secreted cytokines were measured.
In another inflammation model, mice were randomized into groups of two animals to receive the treatments. Mice were challenged with plitidepsin (1 mg/kg) intra venous (i.v.) followed by Resiquimod (50 μg/mouse, intranasal) 1 hour latter. The control group received plitidepsin vehicle (Cremophor/Ethanol/Water) diluted with saline. One and 3 hours later, animals were euthanized, bronchoalveolar lavage collected (a total of 1.2 ml, PBS) and then, TNFα quantified by ELISA kits.

THP-1 cells = experiment: MTT cell proliferation assay (cytotoxicity control); assay type: cell-based, human; conditions: activators combined with 100 nM plitidepsin, 6 hours
[3] = Pharmacokinetics in patients; assay type: in vivo, Human
[4] = Pharmacokinetics, plasma and lung, hamster; conditions: hamsters, single intravenous dose 0.2 mg/kg
COVID-19 = assay type: in vivo, human
Protocol: All patients received the following prophylactic medications 20-30 minutes before the infusion of plitidepsin: • Diphenhydramine hydrochloride 25 mg iv or equivalent. • Ranitidine 50 mg iv or equivalent. • Dexamethasone 6.6 mg intravenous. • Ondansetron 8 mg i.v. in slow infusion of 15 minutes or equivalent.
Patients included in the study will receive treatment for 3 days.

[5] = Pharmacokinetics, plasma and lung, mouse
[6] = tested on: cytokine secretion induced by Resiquimod in THP-1 cells; experiment: Plitidepsin pre-treatment of THP-1 NFκB luc cells before Resiquimod stimulus; assay type: cell-based, human; conditions: 1, 10 or 50 nM added 8 hours before Resiquimod 2.5 or 5 μg/mL; measured at 24 hours
Protocol: At 0 time THP-1 cells were treated with 1 nM, 10 nM or 50 nM APL or DMSO (0.2%) followed by stimulus with Resiquimod at 2.5 or 5 μg/mL at 8 hours. At 24 hours cytokines or cell viability was measured.
In a further in vitro experiment, the effect of plitidepsin (APL) pre-treatment on THP-1 cells was studied. Using a THP-1 NFκB luc line, 1, 10 or 50 nM of APL or DMSO (0.2%) was added 8 hours before stimulus with Resiquimod (RQ) at 2.5 or 5 μg/mL. RQ is a TLR7/8 agonist and mimics ssRNA. At 24 hours the level of cytokines or cell viability was measured.

[7] = Stability of plitidepsin drug product and reconstituted solution; assay type: physicochemical
Protocol: Plitidepsin will be labelled with the study protocol code, the batch number, the content, the expiry date, the storage conditions, the name of the investigator and the sponsor. The study drug will be labelled in accordance with Annex 13 of the European Good Manufacturing Practices. Plitidepsin should be stored between 2° C. and 8° C. and the vials should be kept in the outer carton to protect them from light. The drug in these conditions is stable for 60 months.
After reconstitution of the 2 mg plitidepsin vial with 4 ml of the solution for reconstitution of macrogolglycerol ricinoleate/ethanol/water for injection, the reconstituted solution should be diluted and used immediately after preparation. If not used immediately, storage times and conditions until use are the responsibility of the user. […] If storage is required before administration, solutions should be stored refrigerated and protected from light and should be used within 24 hours after reconstitution.

[8] = tested on: TLR-trigged cytokine secretion in THP-1 cells; experiment: ELISA assays for secreted cytokines, TLR ligands combined with plitidepsin; conditions: 100 nM plitidepsin with TLR ligands, 6 hours, THP-1, ELISA
Protocol: To investigate whether plitidepsin inhibits the TLR-trigged cytokine secretion, we treated THP-1 cells with 100 ng/mL TNFα (an activator of NF-κB), 500 μg/mL poly I:C (TLR3 ligand), 10 μg/mL LPS-B5 (TLR4 ligand) or 10 μg/mL Resiquimod (TLR-7/8 ligand). The compounds were used either alone (grey bars) or combined with 100 nM of plitidepsin (red bars) for 6 hours. We compared the variations in cytokine secretion in the cell culture supernatants between the different treatments by ELISA assays.
THP1-NFκB-LUC cell cultures were treated as described above, and the culture medium was sampled at 6 hours post-treatment to assay for secreted cytokines by ELISA. Media samples were stored at 4-C. IL-8, IL-1β, IL-6 and TNFα protein secretion into culture medium was quantitated using highly specific and sensitive ELISA kits. Human IL-lb, human IL-6, human IL-8 and human TNF OptEIA™ ELISA kits were obtained from BD Biosciences and performed as described by the manufacturer. The data presented are the average of three independent experiments performed in triplicate.

[9] = Pharmacokinetics, plasma and lung, rat; conditions: rats, single intravenous dose 0.2 mg/kg
[10] = BAL cells 12 hours after, ex vivo 15 μg/mL LPS-B5 for 3 or 6 hours, listed as plitidepsin, 1 mg/kg
[11] = Human (M/F), 0.135 mg/kg (Recommended Dose 5 mg/m2, 3-h intravenous infusion)
[12] = Human, 0.02 mg/kg (1.5 mg/patient), following 3 daily doses, estimated from population PK model
[13] = individual patients, PLD 2.0 mg×3
[14] = Mouse (F) C57BL6/J, 1.0 mg/kg single intravenous bolus, plasma

(−)-(3S,6R,7S,10R,11S,15S,17S,20S,25aS)-11-hydroxy-3-(4-methoxybenzyl)-2,6,17-trimethyl-15-(1-methylethyl)-7-[[(2R)-4-methyl-2-[methyl[[(2S)-1-(2-oxopropanoyl)pyrrolidin-2-yl]carbonyl]amino]pentanoyl]amino]-10-[(1S)-1-methylpropyl]-20-(2-methylpropyl)tetradecahydro-15H-pyrrolo[2,1-f]-[1,15,4,7,10,20]dioxatetrazacyclotricosine-1,4,8,13,16,18,21(17H)-heptone [PLD]
production of luciferase (NF-κB transactivation) (NF-κB): clearly inhibited | secretion of IL-10 induced by LPS-B5 ([1]; BAL cells 12 hours after, ex vivo 15 μg/mL LPS-B5 for 3 or 6 hours): significantly reduce | secretion of IL-6 induced by LPS-B5 [1, 10]: clearly inhibited; also recorded: significantly reduce | secretion of TNFα induced by LPS-B5 [1, 10]: clearly inhibited; also recorded: significantly reduce | cell viability of CD45+ cells from bronco-alveolar lavages ([1]; LPS-B5 ex vivo): unrelated to cell viability | cytotoxic effects (CD45+ alive cells in bronchoalveolar lavage) (alveolar macrophages): without cytotoxic effects | percentage of macrophages present in bronchoalveolar lavage (alveolar macrophages): decrease | production of TNFα in BALF [2]: prevented the increased production | Survival (MTT assay), cytotoxic effect (THP-1 cells): No cytotoxic effect | AUC0-∞ [3, 11]: 256.0 ng·h/mL | Cl [3, 11]: 12 to 15 mL/min/kg | Cmax [3, 11]: 29.1 ng/mL | Vdss [3, 11]: 29-33 L7 kg | t1/2 [3, 11]: 20 to 80 h | AUC0-∞ [3, 12]: 174.0^d ng · h/mL | Cmax [3, 12]: 8.5^d ng/mL | lung-to-plasma ratio (lungAUC0-∞/plasmaAUC0-∞) [4]: 909 | tolerability (COVID-19; 45 patients, 1.5, 2.0 and 2.5 mg daily for 3 days, all 3 dose cohorts): well tolerated | Hospital discharge by day (COVID-19; [13]): ≤ 10 days and ≤ 8 days | PCR COVID 19 test converted to negative by day (COVID-19; [13]): ≤ 15 day and ≤ 7 day and still positive at day 7 | clinical outcome (COVID-19; [13]): major clinical improvement | patients discharged by Day 15 (COVID-19; mild disease, across dose cohorts (9/9)): 100% | patients discharged by Day 15 (COVID-19; moderate disease, across dose cohorts (23/28)): 82% | Bilateral pneumonia resolved by day (COVID-19; patient 5, PLD 1.5 mg×3): ≤ 6 days | C-reactive protein (COVID-19; patient 5, PLD 1.5 mg×3): acute fall is seen by day 2 | C-reactive protein (COVID-19; patients 7 and 9, PLD 2.0 mg×3): acute fall is seen by day 3 | patients discharged by Day 15 (COVID-19; severe disease, across dose cohorts (4/7)): 57% | AUC0-∞ [5, 14]: 225.3 ng·h/mL | Cl [5, 14]: 73.3 mL/min/kg | Cmax [5, 14]: 50.7 ng/mL | Vdss [5, 14]: 101.8 L7 kg | t1/2 [5, 14]: 18.2 h | Maximum Tolerated Dose ([5]; Mouse (F) C57BL6/J, single intravenous bolus): 1.0^a mg/kg | lung-to-plasma ratio (lungAUC0-∞/plasmaAUC0-∞) ([5]; mice, single intravenous dose 1.0 mg/kg): 133 | secretion of IL1β [6]: inhibited | secretion of IL6 [6]: inhibited | secretion of IL8 [6]: inhibited | secretion of TNF-α [6]: inhibited | physical, chemical and microbiological stability of reconstituted concentrated solution ([7]; original vial under indoor light at room temperature): 6 hours | physical, chemical and microbiological stability of reconstituted concentrated solution ([7]; refrigerated conditions (5° C.±3° C.)): 24 hours | stability of the drug (2 mg vial, powder) ([7]; stored between 2° C. and 8° C., in outer carton protected from light): 60 months | production of IL-1 [8]: clearly inhibited | production of IL-6 [8]: clearly inhibited | production of IL-8 [8]: clearly inhibited | production of TNFα [8]: clearly inhibited | lung-to-plasma ratio (lungAUC0-∞/plasmaAUC0-∞) [9]: 460
